Patent US6589984B1, “Benzofurylpyrone derivatives” (Teijin Limited, priority 1998, dated 2003)
pIC50: −log10 of the molar value.

Test system: Human hepatic cancer cells HepG2
Experiment: TG production inhibiting activity (14C-acetic acid incorporation into TG) in HepG2 cells
Assay type: cell-based
Settings: Homo sapiens, HepG2; group criterion, alternatives: IC50 at least 10 μM and less than 100 μM, or at least 5% and less than 30% inhibition at 1 μM, or at least 30% and less than 50% inhibition at 10 μM
Protocol: Human hepatic cancer cells HepG2 were inoculated into a 24-well plate (Costar No. 3524) at 4×10^4 cells/well, and 1 ml of medium (eRDF medium containing 10% bovine serum (Kyokuto Chemical Co.)) was used for 6 day culturing with 5% CO2 at 37° C. After drawing off the supernatant medium, the cells were freshly rinsed with 1 ml of PBS(−) buffer solution (Takara Shuzo) and drawn off. This procedure was repeated twice and then 1 ml of fresh medium (eRDF medium) was added.
6-(benzofuran-2-yl)-3,5-dimethyl-4-hydroxy-2H-pyran-2-one (Example 2) was dissolved in dimethylsulfoxide (DMSO) to prepare a 20 mM sample stock solution. A diluted solution was obtained by diluting the sample solution with DMSO.
To the cells prepared above there were added the sample stock solution or its diluted solution at 5 μl per well and 10 μl of ^14C-acetic acid solution (a solution of Amersham Code No. CFA13 diluted 4.4-fold with PBS(−) buffer), and culturing was carried out for one day with 5% CO2 at 37° C.
After the culturing was completed, the culture solution was removed, and 1 ml of extraction solution (a mixture of n-hexane and isopropyl alcohol at 2:1) was added for extraction treatment on the lipid components in the cells. After the treatment, the extract containing the obtained lipid components was air-dried, the residue was redissolved in 20 μl of a mixed solution of n-hexane and ethyl acetate at 9:1, and the solution was spotted on a thin-layer chromatography plate (S319, Tokyo Kasei) and developed by thin-layer chromatography with the mixed solution mentioned above. After air-drying, the lipid components were colored with iodine vapor, the portion corresponding to TG was cut out, and the amount of TG biosynthesized was measured with a liquid scintillation counter.

Row | SMILES | pIC50
1 | Cc1c(-c2cc3cc(OCCOCc4ccccc4)ccc3o2)oc(=O)c(C)c1O [Example 213, 6-(5-(2-(benzyloxy)ethoxy)benzofuran-2-yl)-3,5-dimethyl-4-hydroxy-2H-pyran-2-one] | 4.00 to 5.00
2 | CC(=O)Oc1c(C)c(-c2cc3cc(O)ccc3o2)oc(=O)c1C [Example 261, 4-acetyloxy-3,5-dimethyl-6-(5-hydroxybenzofuran-2-yl)-2H-pyran-2-one] | 4.00 to 5.00
3 | Cc1c(-c2cc3cc(OCc4ccc5ccccc5c4)ccc3o2)oc(=O)c(C)c1O [Example 175, 3,5-dimethyl-4-hydroxy-6-(5-(2-naphthylmethoxy)benzofuran-2-yl)-2H-pyran-2-one] | 4.00 to 5.00
4 | Cc1c(-c2cc3ccccc3o2)oc(=O)c(C)c1OC(=O)c1ccc(O)nc1 [Example 74, 6-(benzofuran-2-yl)-3,5-dimethyl-4-(6-hydroxynicotinoyloxy)-2H-pyran-2-one] | 4.00 to 5.00
5 | Cc1c(-c2cc3cc(OCc4cc(Cl)ccc4Cl)ccc3o2)oc(=O)c(C)c1O [Example 155, 6-(5-(2,5-dichlorobenzyloxy)benzofuran-2-yl)-3,5-dimethyl-4-hydroxy-2H-pyran-2-one] | 4.00 to 5.00
6 | Cc1c(O)c(-c2ccccc2)c(-c2cc3ccccc3o2)oc1=O [Example 35, 6-(benzofuran-2-yl)-4-hydroxy-3-methyl-5-phenyl-2H-pyran-2-one] | 4.00 to 5.00
7 | CC(=O)Oc1c(C)c(-c2cc3ccc(O)cc3o2)oc(=O)c1C [Example 18, 4-acetyloxy-3,5-dimethyl-6-(6-hydroxybenzofuran-2-yl)-2H-pyran-2-one] | 4.00 to 5.00
8 | CC(=O)Oc1c(C)c(-c2cc3cc(C(=O)O)ccc3o2)oc(=O)c1C [Example 264, 4-acetyloxy-6-(5-carboxybenzofuran-2-yl)-3,5-dimethyl-2H-pyran-2-one] | 4.00 to 5.00
9 | Cc1c(O)cc(-c2cc3ccccc3o2)oc1=O [Example 32, 6-(benzofuran-2-yl)-4-hydroxy-3-methyl-2H -pyran-2-one] | 4.00 to 5.00
10 | Cc1c(-c2cc3cc(OC4CCN(C(=O)OC(C)(C)C)CC4)ccc3o2)oc(=O)c(C)c1O [Example 222, 6-(5-(1-t-butoxycarbonylpiperidin-4-yloxy)benzofuran-2-yl)-3,5-dimethyl-4-hydroxy-2H-pyran-2-one] | 4.00 to 5.00
11 | Cc1c(-c2cc3cc(C=O)ccc3o2)oc(=O)c(C)c1O [Example 7, 3,5-dimethyl-6-(5-formylbenzofuran-2-yl)-4-hydroxy-2H-pyran-2-one] | 4.00 to 5.00
12 | CC(=O)Oc1c(C)c(-c2cc3cc(C=O)ccc3o2)oc(=O)c1C [Example 8, 4-acetyloxy-3,5-dimethyl-6-(5-formylbenzofuran-2-yl)-2H-pyran-2-one] | 4.00 to 5.00
13 | Cc1c(-c2cc3cc(OC(CN(C)C)CN(C)C)ccc3o2)oc(=O)c(C)c1O [Example 107, 6-(5-(1,3-bis(dimethylamino)-2-propoxy)benzofuran-2-yl)-3,5-dimethyl-4-hydroxy-2H-pyran-2-one] | 4.00 to 5.00
14 | COc1cccc2oc(-c3oc(=O)c(C)c(O)c3C)cc12 [Example 267, 3,5-dimethyl-4-hydroxy-6-(4-methoxybenzofuran-2-yl)-2H-pyran-2-one] | 4.00 to 5.00
15 | Cc1c(-c2cc3cc(OCC4CCCCN4C)ccc3o2)oc(=O)c(C)c1O (centres unmarked) [Example 95, 3,5-dimethyl-4-hydroxy-6-(5-(1-methylpiperidin-2-ylmethoxy)benzofuran-2-yl)-2H-pyran-2-one] | 4.00 to 5.00

Same assay, conditions: Homo sapiens, HepG2; group criterion, alternatives: IC50 less than 10 μM, or at least 30% inhibition at 1 μM, or at least 50% inhibition at 10 μM

Row | SMILES | pIC50
16 | Cc1c(-c2cc3cc(OCc4cncc(O)c4)ccc3o2)oc(=O)c(C)c1O [Example 304, 3,5-dimethyl-4-hydroxy-6-(5-(5-hydroxy-3-pyridylmethoxy)benzofuran-2-yl)-2H-pyran-2-one] | > 5.00
17 | CC(=O)Oc1c(C)c(-c2cc3ccccc3o2)oc(=O)c1C [Example 1, 4-acetyloxy-6-(benzofuran-2-yl)-3,5-dimethyl-2H-pyran-2-one] | > 5.00
18 | Cc1c(-c2cc3cc(N(C)C(=O)c4ccccc4)ccc3o2)oc(=O)c(C)c1O [Example 250, 6-(5-(N-benzoyl-N-methylamino)benzofuran-2-yl)-3,5-dimethyl-4-hydroxy-2H-pyran-2-one] | > 5.00
19 | CCc1c(-c2cc3cc(OCc4ccccc4)ccc3o2)oc(=O)c(C)c1O [Example 57, 6-(5-benzyloxybenzofuran-2-yl)-5-ethyl-4-hydroxy-3-methyl-2H-pyran-2-one] | > 5.00
20 | COc1ccc2oc(-c3oc(=O)c(C)c(OC(C)=O)c3C)cc2c1 [Example 268, 4-acetyloxy-3,5-dimethyl-6-(5-methoxybenzofuran-2-yl)-2H-pyran-2-one] | > 5.00
21 | Cc1c(-c2cc3ccccc3o2)oc(=O)c(C)c1OC(=O)COc1ccccc1 [Example 42, 6-(benzofuran-2-yl)-3,5-dimethyl-4-phenoxyacetyloxy-2H-pyran-2-one] | > 5.00
22 | Cc1c(-c2cc3cc([N+](=O)[O-])ccc3o2)oc(=O)c(C)c1O [Example 45, 3,5-dimethyl-4-hydroxy-6-(5-nitrobenzofuran-2-yl)-2H-pyran-2-one] | > 5.00
23 | CC(=O)Nc1ccc(C(=O)Oc2c(C)c(-c3cc4cc(OCc5ccccc5)ccc4o3)oc(=O)c2C)cc1 [Example 54, 4-(4-(acetylamino)benzoyloxy)-6-(5-benzyloxybenzofuran-2-yl)-3,5-dimethyl-2H-pyran-2-one] | > 5.00
24 | COc1cccc2cc(-c3oc(=O)c(C)c(O)c3C)oc12 [Example 13, 3,5-dimethyl-4-hydroxy-6-(7-methoxybenzofuran-2-yl)-2H-pyran-2-one] | > 5.00
25 | Cc1c(-c2cc3cc(N(Cc4ccccc4)Cc4ccccc4)ccc3o2)oc(=O)c(C)c1O [Example 49, 6-(5-(dibenzylamino)benzofuran-2-yl)-3,5-dimethyl-4-hydroxy-2H-pyran-2-one] | > 5.00
26 | Cc1c(-c2cc3ccccc3o2)oc(=O)c(C)c1OC(=O)C(C)C [Example 39, 6-(benzofuran-2-yl)-3,5-dimethyl-4-isobutyryloxy-2H-pyran-2-one] | > 5.00
27 | Cc1c(-c2cc3cc(OCc4ccccc4)ccc3o2)oc(=O)c(C)c1OC(=O)CNC(=O)OC(C)(C)C [Example 52, 6-(5-benzyloxybenzofuran-2-yl)-4-(2-(t-butoxycarbonylamino)acetyloxy)-3,5-dimethyl-2H-pyran-2-one] | > 5.00
28 | Cc1c(-c2cc3cc(C=C4SC(=O)NC4=O)ccc3o2)oc(=O)c(C)c1O [Example 9, 3,5-dimethyl-6-(5-((3,5-dioxo-2,4-thiazolidinylidene)methyl)benzofuran-2-yl)-4-hydroxy-2H-pyran-2-one] | > 5.00
29 | Cc1c(-c2cc3cc(OCc4ccc(Cl)cc4Cl)ccc3o2)oc(=O)c(C)c1O [Example 153, 6-(5-(2,4-dichlorobenzyloxy)benzofuran-2-yl)-3,5-dimethyl-4-hydroxy-2H-pyran-2-one] | > 5.00
30 | Cc1c(-c2cc3ccccc3o2)oc(=O)c(C)c1OC(=O)c1cccnc1 [Example 63, 6-(benzofuran-2-yl)-3,5-dimethyl-4-nicotinoyloxy-2H-pyran-2-one] | > 5.00
31 | CCCCCc1c(-c2cc3ccccc3o2)oc(=O)c(C)c1O [Example 11, 6-(benzofuran-2-yl)-4-hydroxy-3-methyl-5-n-pentyl-2H-pyran-2-one] | > 5.00
32 | Cc1c(-c2cc3ccccc3o2)oc(=O)c(C)c1OC(=O)c1ccncc1 [Example 50, 6-(benzofuran-2-yl)-3,5-dimethyl-4-isonicotinoyloxy-2H-pyran-2-one] | > 5.00
33 | CCCCOc1ccc(COc2ccc3oc(-c4oc(=O)c(C)c(O)c4C)cc3c2)cc1 [Example 163, 6-(5-(4-n-butoxybenzyloxy)benzofuran-2-yl)-3,5-dimethyl-4-hydroxy-2H-pyran-2-one] | > 5.00
34 | Cc1c(-c2cc3cc(OCc4cccc(Cl)c4)ccc3o2)oc(=O)c(C)c1O [Example 242, 6-(5-(3-chlorobenzyloxy)benzofuran-2-yl)-3,5-dimethyl-4-hydroxy-2H-pyran-2-one] | > 5.00
35 | Cc1c(-c2cc3cc(OCc4ccc(C(=O)O)cc4)ccc3o2)oc(=O)c(C)c1O [Example 117, 6-(5-(4-carboxybenzyloxy)benzofuran-2-yl)-3,5-dimethyl-4-hydroxy-2H-pyran-2-one] | > 5.00
36 | Cc1c(-c2cc3ccccc3o2)oc(=O)c(C)c1OC(=O)Cc1ccccc1 [Example 31, 6-(benzofuran-2-yl)-3,5-dimethyl-4-phenylacetyloxy-2H-pyran-2-one] | > 5.00
37 | Cc1c(-c2cc3cc(C(=O)NCc4ccncc4)ccc3o2)oc(=O)c(C)c1O [Example 306, 3,5-dimethyl-4-hydroxy-6-(5-(4-pyridylmethylcarbamoyl)benzofuran-2-yl)-2H-pyran-2-one] | > 5.00
38 | Cc1c(-c2cc3cc(OCc4cncs4)ccc3o2)oc(=O)c(C)c1O [Example 243, 3,5-dimethyl-4-hydroxy-6-(5-(5-thiazolylmethoxy)benzofuran-2-yl)-2H-pyran-2-one] | > 5.00
